Measurements reported in patent US20250282771A1, “TETRAHYDROISOQUINOLINE HETEROBIFUNCTIONAL BCL-XL DEGRADERS” (Treeline Biosciences, Inc., priority 2022, published 2025).

Biological target: T1, N-terminal HiBiT tagged BCL-XL (Homo sapiens, UniProt Q07817)
T1 construct: expressed in transfected cells; host or cells: HT-1080 (ATCC CCL-121) cells stably transduced with lentivirus pLV-UBC-N-HiBiT-BCL-XL-PGK-puro
Test: HiBiT based degradation assay
Type: cell-based
Details: HT1080 cells expressing N-terminal HiBiT tagged BCL-XL, BCL-XL level normalized with DMSO control
From the text: Human BCL-XL protein coding open reading frame fused with N-terminal HiBiT coding sequence was synthesized from Integrated DNA Technologies (IDT). Next, N-HiBiT-BCL-XL sequence was cloned into pLV-UBC-PGK-Puro, a lentivirus plasmid purchased from Vectorbuilder, to generate pLV-UBC-N-HiBiT-BCL-XL-PGK-puro. Lentiviral particles were generated from Lenti-X™ 293T cells (Clontech) by co-transfection of pLV-UBC-N-HiBiT-BCL-XL-PGK-puro plasmids and lentiviral packaging plasmid mix (Cellecta). HT-1080 [HT1080](ATCC CCL-121) cells were infected with the lentivirus, and HT1080 cells stably integrated with the lentiviral vectors were established by incubation with […] puromycin (Thermofisher).
HT1080 cells expressing N-terminal HiBiT tagged BCL-XL were dispensed into a 384-well plate pre-spotted with compounds at varying concentrations. Three thousand cells were seeded into each well in 40 μL of RPMI 1640 media. […] After incubation, luminescence was read on a PHERAstar FSX Plate Reader (BMG). BCL-XL degradation at each indicated concentration was normalized with the DMSO control. The BCL-XL degradation curves were plotted using a four-parameter logistic model. For compounds displaying hook effects, the curve fitting was performed using the bottom point of the hook curves (i.e., the point of Ymin) as the bottom plateau to calculate EC50.

T1 sequence (Q07817 whole entry): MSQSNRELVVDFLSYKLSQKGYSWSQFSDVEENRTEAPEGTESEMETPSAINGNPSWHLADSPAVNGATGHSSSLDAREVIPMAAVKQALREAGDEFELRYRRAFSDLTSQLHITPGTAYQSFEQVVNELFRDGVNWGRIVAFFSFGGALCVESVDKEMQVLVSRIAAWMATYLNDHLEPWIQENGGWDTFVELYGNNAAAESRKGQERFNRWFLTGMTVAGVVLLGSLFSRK

Row | SMILES | Ymin (24 h) | Ymin (6 h)
1 | Cc1c(OCCC(F)(F)C2CCN(CC(=O)N3CCN(c4cc5c(cc4F)C(=O)N(C4CCC(=O)NC4=O)C5=O)CC3)CC2)cccc1-c1ccc(N2CCc3cccc(C(=O)Nc4nc5ccccc5s4)c3C2)nc1C(=O)O (centres unmarked) [Compound 126, 6-(8-(benzo[d]thiazol-2-ylcarbamoyl)-3,4-dihydroisoquinolin-2(1H)-yl)-3-(3-(3-(1-(2-(4-(2-(2,6-dioxopiperidin-3-yl)-6-fluoro-1,3-dioxoisoindolin-5-yl)piperazin-1-yl)-2-oxoethyl)piperidin-4-yl)-3,3-difluoropropoxy)-2-methylphenyl)picolinic acid] | B (50% ≤ Ymin < 70%) | 
2 | Cc1c(OCCCCCCCCCC(=O)N2CCN(c3cc4c(cc3F)C(=O)N(C3CCC(=O)NC3=O)C4=O)CC2)cccc1-c1ccc(N2CCc3cccc(C(=O)Nc4nc5ccccc5s4)c3C2)nc1C(=O)O (centres unmarked) [Compound 102] |  | A (Ymin < 50%)
3 | Cc1c(Oc2ccc(CCCC(=O)N3CCN(c4cc5c(cc4F)C(=O)N(C4CCC(=O)NC4=O)C5=O)CC3)cc2)cccc1-c1ccc(N2CCc3cccc(C(=O)Nc4nc5ccccc5s4)c3C2)nc1C(=O)O (centres unmarked) [Compound 119, 6-(8-(benzo[d]thiazol-2-ylcarbamoyl)-3,4-dihydroisoquinolin-2(1H)-yl)-3-(3-(4-(4-(4-(2-(2,6-dioxopiperidin-3-yl)-6-fluoro-1,3-dioxoisoindolin-5-yl)piperazin-1-yl)-4-oxobutyl)phenoxy)-2-methylphenyl)picolinic acid] | B (50% ≤ Ymin < 70%) | C (Ymin ≥ 70%)
4 | Cc1c(OCC2CC3(CCN(CCN4CCN(c5cc6c(cc5F)C(=O)N(C5CCC(=O)NC5=O)C6=O)CC4)CC3)C2)cccc1-c1ccc(N2CCc3cccc(C(=O)Nc4nc5ccccc5s4)c3C2)nc1C(=O)O (centres unmarked) [Compound 132, 6-(8-(benzo[d]thiazol-2-ylcarbamoyl)-3,4-dihydroisoquinolin-2(1H)-yl)-3-(3-((7-(2-(4-(2-(2,6-dioxopiperidin-3-yl)-6-fluoro-1,3-dioxoisoindolin-5-yl)piperazin-1-yl)ethyl)-7-azaspiro[3.5]nonan-2-yl)methoxy)-2-methylphenyl)picolinic acid] | B (50% ≤ Ymin < 70%) | 
5 | Cc1c(OCCCC2CCN([C@@H](C)C(=O)N3CCN(c4cc5c(cc4F)C(=O)N(C4CCC(=O)NC4=O)C5=O)CC3)CC2)cccc1-c1ccc(N2CCc3cccc(C(=O)Nc4nc5ccccc5s4)c3C2)nc1C(=O)O (stereo partly drawn) [Compound 124a, 6-(8-(benzo[d]thiazol-2-ylcarbamoyl)-3,4-dihydroisoquinolin-2(1H)-yl)-3-(3-(3-(1-((2S)-1-(4-(2-(2,6-dioxopiperidin-3-yl)-6-fluoro-1,3-dioxoisoindolin-5-yl)piperazin-1-yl)-1-oxopropan-2-yl)piperidin-4-yl)propoxy)-2-methylphenyl)picolinic acid] | B (50% ≤ Ymin < 70%) | 
6 | Cc1c(OCCCCN2CCC(CN3CCN(c4cc5c(cc4F)C(=O)N(C4CCC(=O)NC4=O)C5=O)CC3)CC2)cccc1-c1ccc(N2CCc3cccc(C(=O)Nc4nc5ccccc5s4)c3C2)nc1C(=O)O (centres unmarked) [Compound 123, 6-[8-(1,3-benzothiazol-2-ylcarbamoyl)-3,4-dihydro-1H-isoquinolin-2-yl]-3-[3-[4-[4-[[4-[2-(2,6-dioxo-3-piperidyl)-6-fluoro-1,3-dioxo-isoindolin-5-yl]piperazin-1-yl]methyl]-1-piperidyl]butoxy]-2-methyl-phenyl]pyridine-2-carboxylic acid] | B (50% ≤ Ymin < 70%) | 
7 | Cc1c(OCCCC2CCN(CCN3CCN(c4cc5c(cc4F)C(=O)N(C4CCC(=O)NC4=O)C5=O)CC3)CC2)cccc1-c1ccc(N2CCc3cccc(C(=O)Nc4nc5ccccc5s4)c3C2)nc1C(=O)O (centres unmarked) [Compound 118, 6-(8-(benzo[d]thiazol-2-ylcarbamoyl)-3,4-dihydroisoquinolin-2(1H)-yl)-3-(3-(3-(1-(2-(4-(2-(2,6-dioxopiperidin-3-yl)-6-fluoro-1,3-dioxoisoindolin-5-yl)piperazin-1-yl)ethyl)piperidin-4-yl)propoxy)-2-methylphenyl)picolinic acid] | A (Ymin < 50%) | 
8 | Cc1c(OCCC2CCN(CCN3CCN(c4cc5c(cc4F)C(=O)N(C4CCC(=O)NC4=O)C5=O)CC3)CC2)cccc1-c1ccc(N2CCc3cccc(C(=O)Nc4nc5ccccc5s4)c3C2)nc1C(=O)O (centres unmarked) [Compound 116, 6-[8-(1,3-benzothiazol-2-ylcarbamoyl)-3,4-dihydro-1H-isoquinolin-2-yl]-3-[3-[2-[1-[2-[4-[2-(2,6-dioxo-3-piperidyl)-6-fluoro-1,3-dioxo-isoindolin-5-yl]piperazin-1-yl]ethyl]-4-piperidyl]ethoxy]-2-methyl-phenyl]pyridine-2-carboxylic acid] | A (Ymin < 50%) | 
9 | Cc1c(OCCCCCCCN2CCN(c3cc4c(cc3F)C(=O)N(C3CCC(=O)NC3=O)C4=O)CC2)cccc1-c1ccc(N2CCc3cccc(C(=O)Nc4nc5ccccc5s4)c3C2)nc1C(=O)O (centres unmarked) [Compound 104, 6-(8-(benzo[d]thiazol-2-ylcarbamoyl)-3,4-dihydroisoquinolin-2(1H)-yl)-3-(3-((7-(4-(2-(2,6-dioxopiperidin-3-yl)-6-fluoro-1,3-dioxoisoindolin-5-yl)piperazin-1-yl)heptyl)oxy)-2-methylphenyl)picolinic acid] | B (50% ≤ Ymin < 70%) | B (50% ≤ Ymin < 70%)
10 | Cc1c(O[C@H](C)CCC2CCN(CC(=O)N3CCN(c4cc5c(cc4F)C(=O)N(C4CCC(=O)NC4=O)C5=O)CC3)CC2)cccc1-c1ccc(N2CCc3cccc(C(=O)Nc4nc5ccccc5s4)c3C2)nc1C(=O)O (stereo partly drawn) [Compound 128b, 6-[8-(1,3-benzothiazol-2-ylcarbamoyl)-3,4-dihydro-1H-isoquinolin-2-yl]-3-[3-[(1R)-3-[1-[2-[4-[2-(2,6-dioxo-3-piperidyl)-6-fluoro-1,3-dioxo-isoindolin-5-yl]piperazin-1-yl]-2-oxo-ethyl]-4-piperidyl]-1-methyl-propoxy]-2-methyl-phenyl]pyridine-2-carboxylic acid] | B (50% ≤ Ymin < 70%) | 
11 | Cc1c(OCC(F)(F)CC2CCN(CC(=O)N3CCN(c4cc5c(cc4F)C(=O)N(C4CCC(=O)NC4=O)C5=O)CC3)CC2)cccc1-c1ccc(N2CCc3cccc(C(=O)Nc4nc5ccccc5s4)c3C2)nc1C(=O)O (centres unmarked) [Compound 127, 6-(8-(benzo[d]thiazol-2-ylcarbamoyl)-3,4-dihydroisoquinolin-2(1H)-yl)-3-(3-(3-(1-(2-(4-(2-(2,6-dioxopiperidin-3-yl)-6-fluoro-1,3-dioxoisoindolin-5-yl)piperazin-1-yl)-2-oxoethyl)piperidin-4-yl)-2,2-difluoropropoxy)-2-methylphenyl)picolinic acid] | B (50% ≤ Ymin < 70%) | 
12 | Cc1c(OCCCN2CCN(c3cc4c(cc3F)C(=O)N(C3CCC(=O)NC3=O)C4=O)CC2)cccc1-c1ccc(N2CCc3cccc(C(=O)Nc4nc5ccccc5s4)c3C2)nc1C(=O)O (centres unmarked) [Compound 101] |  | B (50% ≤ Ymin < 70%)
13 | Cc1c(Oc2ccc(CCCN3CCN(c4cc5c(cc4F)C(=O)N(C4CCC(=O)NC4=O)C5=O)CC3)cc2)cccc1-c1ccc(N2CCc3cccc(C(=O)Nc4nc5ccccc5s4)c3C2)nc1C(=O)O (centres unmarked) [Compound 110, 6-[8-(1,3-Benzothiazol-2-ylcarbamoyl)-3,4-dihydro-1H-isoquinolin-2-yl]-3-[3-[4-[3-[4-[2-(2,6-dioxo-3-piperidyl)-6-fluoro-1,3-dioxo-isoindolin-5-yl]piperazin-1-yl]propyl]phenoxy]-2-methyl-phenyl]pyridine-2-carboxylic acid] | B (50% ≤ Ymin < 70%) | B (50% ≤ Ymin < 70%)
14 | Cc1c(Oc2ccc(CCCCN3CCN(c4cc5c(cc4F)C(=O)N(C4CCC(=O)NC4=O)C5=O)CC3)cc2)cccc1-c1ccc(N2CCc3cccc(C(=O)Nc4nc5ccccc5s4)c3C2)nc1C(=O)O (centres unmarked) [Compound 117, 6-(8-(benzo[d]thiazol-2-ylcarbamoyl)-3,4-dihydroisoquinolin-2(1H)-yl)-3-(3-(4-(4-(4-(2-(2,6-dioxopiperidin-3-yl)-6-fluoro-1,3-dioxoisoindolin-5-yl)piperazin-1-yl)butyl)phenoxy)-2-methylphenyl)picolinic acid] | B (50% ≤ Ymin < 70%) | B (50% ≤ Ymin < 70%)
15 | Cc1c(OCCCC2CCN([C@H](C)C(=O)N3CCN(c4cc5c(cc4F)C(=O)N(C4CCC(=O)NC4=O)C5=O)CC3)CC2)cccc1-c1ccc(N2CCc3cccc(C(=O)Nc4nc5ccccc5s4)c3C2)nc1C(=O)O (stereo partly drawn) [Compound 124b, 6-(8-(benzo[d]thiazol-2-ylcarbamoyl)-3,4-dihydroisoquinolin-2(1H)-yl)-3-(3-(3-(1-((2R)-1-(4-(2-(2,6-dioxopiperidin-3-yl)-6-fluoro-1,3-dioxoisoindolin-5-yl)piperazin-1-yl)-1-oxopropan-2-yl)piperidin-4-yl)propoxy)-2-methylphenyl)picolinic acid] | B (50% ≤ Ymin < 70%) | 
16 | Cc1c(OCCCCCCCC(=O)N2CCN(c3cc4c(cc3F)C(=O)N(C3CCC(=O)NC3=O)C4=O)CC2)cccc1-c1ccc(N2CCc3cccc(C(=O)Nc4nc5ccccc5s4)c3C2)nc1C(=O)O (centres unmarked) [Compound 114] |  | B (50% ≤ Ymin < 70%)
